# Experimental data reported in PubChem BioAssay AID1845209 (Molecular Pharmacology Branch, DTP, NCI, 2023).
# Test system: NCI-H211 tumor spheroids, viability percent test/control
# Assay: Anticancer human tumor NCI-H211 cell line growth inhibition;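 note: spheroids exposed to agents for seven days before readout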
# Conditions: spheroids with HUVEC and MSC; for IC50: curve of first compound; for viability, T/C: stronger effect = lower value
# Procedure, shortened: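 Complex spheroids of malignant cells with endothelial cells and mesenchymal stem cells; agents alone or combined, from near clinical Cmax (or 10 microM if unknown) down in half-log steps, 0.25% DMSO final.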
# [1] = second compound 30 pM, first compound 0.0316 µM
# [2] = second compound 30 pM, first compound 0.1 µM
# [3] = second compound 30 pM, first compound 0.316 µM
# [4] = second compound 30 pM, first compound 1 µM
# [5] = second compound 30 pM, first compound 3.16 µM
# [6] = second compound 30 pM, first compound 10 µM
# [7] = second compound 94.9 pM, first compound 0.0316 µM
# [8] = second compound 94.9 pM, first compound 0.1 µM
# [9] = second compound 94.9 pM, first compound 0.316 µM
# [10] = second compound 94.9 pM, first compound 1 µM
# [11] = second compound 94.9 pM, first compound 3.16 µM
# [12] = second compound 94.9 pM, first compound 10 µM
# [13] = second compound 0.0003 µM, first compound 0.0316 µM
# [14] = second compound 0.0003 µM, first compound 0.1 µM
# [15] = second compound 0.0003 µM, first compound 0.316 µM
# [16] = second compound 0.0003 µM, first compound 1 µM
# [17] = second compound 0.0003 µM, first compound 3.16 µM
# [18] = second compound 0.0003 µM, first compound 10 µM
# [19] = second compound 0.000949 µM, first compound 0.0316 µM
# [20] = second compound 0.000949 µM, first compound 0.1 µM
# [21] = second compound 0.000949 µM, first compound 0.316 µM
# [22] = second compound 0.000949 µM, first compound 1 µM
# [23] = second compound 0.000949 µM, first compound 3.16 µM
# [24] = second compound 0.000949 µM, first compound 10 µM
# [25] = second compound 0.003 µM, first compound 0.0316 µM
# [26] = second compound 0.003 µM, first compound 0.1 µM
# [27] = second compound 0.003 µM, first compound 0.316 µM
# [28] = second compound 0.003 µM, first compound 1 µM
# [29] = second compound 0.003 µM, first compound 3.16 µM
# [30] = second compound 0.003 µM, first compound 10 µM
SMILES,IC50 (second compound 30 pM) [nM],IC50 (second compound 94.9 pM) [nM],IC50 (second compound 0.0003 µM) [nM],IC50 (second compound 0.000949 µM) [nM],IC50 (second compound 0.003 µM) [nM],"viability, T/C [1] [%]","viability, T/C [2] [%]","viability, T/C [3] [%]","viability, T/C [4] [%]","viability, T/C [5] [%]","viability, T/C [6] [%]","viability, T/C [7] [%]","viability, T/C [8] [%]","viability, T/C [9] [%]","viability, T/C [10] [%]","viability, T/C [11] [%]","viability, T/C [12] [%]","viability, T/C [13] [%]","viability, T/C [14] [%]","viability, T/C [15] [%]",other results
CC1COCCN1c1cc(-c2ccnn2C)c2ccnc(-c3ccn[nH]3)c2n1 (stereo not given) + COc1cc2c(cc1O)CCNC21CSC2c3c(OC(C)=O)c(C)c4c(c3C(COC1=O)N1C(O)C3Cc5cc(C)c(OC)c(O)c5C(C21)N3C)OCO4,< 31.6,< 31.6,< 31.6,< 31.6,< 31.6,0.76,0.64,0.52,0.4,0.43,0.49,0.75,0.74,0.62,0.38,0.35,0.42,0.75,0.89,0.57,"viability, T/C [16]: 0.78%; viability, T/C [17]: 0.3%; viability, T/C [18]: 0.36%; viability, T/C [19]: 0.61%; viability, T/C [20]: 0.63%; viability, T/C [21]: 0.48%; viability, T/C [22]: 0.81%; viability, T/C [23]: 0.36%; viability, T/C [24]: 0.71%; viability, T/C [25]: 0.1%; viability, T/C [26]: 0.1%; viability, T/C [27]: 0.31%; viability, T/C [28]: 0.1%; viability, T/C [29]: 0.46%; viability, T/C [30]: 0.54%"
COc1cc(C)[nH]c(=O)c1CN1CCc2c(Cl)cc(C(OC)C3COC3)c(Cl)c2C1=O (stereo not given) + COc1cc2c(cc1O)CCNC21CSC2c3c(OC(C)=O)c(C)c4c(c3C(COC1=O)N1C(O)C3Cc5cc(C)c(OC)c(O)c5C(C21)N3C)OCO4,> 10000,< 31.6,< 31.6,< 31.6,< 31.6,94.3,98.4,95,90.2,81.9,77.2,13.8,22.7,22.8,16,10.4,5.32,0.73,0.85,0.77,"viability, T/C [16]: 0.69%; viability, T/C [17]: 0.78%; viability, T/C [18]: 0.85%; viability, T/C [19]: 0.63%; viability, T/C [20]: 0.69%; viability, T/C [21]: 0.66%; viability, T/C [22]: 1.2%; viability, T/C [23]: 0.82%; viability, T/C [24]: 0.76%; viability, T/C [25]: 0.12%; viability, T/C [26]: 0.11%; viability, T/C [27]: 0.11%; viability, T/C [28]: 0.1%; viability, T/C [29]: 0.11%; viability, T/C [30]: 0.56%"
Cc1cc(C)c(CNC(=O)c2cc(-c3ccc(CN4CCOCC4)cc3)cc3c2cnn3C2CCCC2)c(=O)[nH]1 + COc1cc2c(cc1O)CCNC21CSC2c3c(OC(C)=O)c(C)c4c(c3C(COC1=O)N1C(O)C3Cc5cc(C)c(OC)c(O)c5C(C21)N3C)OCO4,2730,< 31.6,< 31.6,< 31.6,< 31.6,98.1,113,99.7,73.2,48.8,7.15,17.6,12.4,13.5,4.52,2.44,0.74,0.75,0.76,0.76,"viability, T/C [16]: 0.76%; viability, T/C [17]: 1.22%; viability, T/C [18]: 1.03%; viability, T/C [19]: 0.66%; viability, T/C [20]: 0.82%; viability, T/C [21]: 0.75%; viability, T/C [22]: 0.96%; viability, T/C [23]: 0.65%; viability, T/C [24]: 0.68%; viability, T/C [25]: 0.13%; viability, T/C [26]: 0.11%; viability, T/C [27]: 0.11%; viability, T/C [28]: 0.61%; viability, T/C [29]: 0.4%; viability, T/C [30]: 0.33%"
[2H]c1nc(C)nc([2H])c1-c1cc(NC[C@@H](C)c2cccc3c(C(=O)NC)ccnc23)ncn1 + COc1cc2c(cc1O)CCNC21CSC2c3c(OC(C)=O)c(C)c4c(c3C(COC1=O)N1C(O)C3Cc5cc(C)c(OC)c(O)c5C(C21)N3C)OCO4,> 10000,< 31.6,< 31.6,< 31.6,< 31.6,103,104,100,99.6,102,78.2,16.1,15.9,19.4,17.4,7.6,3.55,0.71,0.97,0.84,"viability, T/C [16]: 0.85%; viability, T/C [17]: 0.8%; viability, T/C [18]: 1.01%; viability, T/C [19]: 0.83%; viability, T/C [20]: 0.71%; viability, T/C [21]: 0.61%; viability, T/C [22]: 0.65%; viability, T/C [23]: 0.74%; viability, T/C [24]: 0.72%; viability, T/C [25]: 0.21%; viability, T/C [26]: 0.21%; viability, T/C [27]: 0.19%; viability, T/C [28]: 0.19%; viability, T/C [29]: 0.19%; viability, T/C [30]: 0.23%"
